Assay results: article PMC5223195, “Novel long-chain compounds with both immunomodulatory and MenA inhibitory activities against Staphylococcus aureus and its biofilm” (Scientific Reports, 2017)
Converted amounts (≈) assume the structure as drawn. “Also recorded” adds a separate entry of the source. Where two headings read alike, the source gives them in different places.

How the values were obtained:
MRSA strains = test: MIC against MRSA strains (summary); type: cell-based, Staphylococcus aureus; conditions: range over MRSA strains
Protocol: (§1) 96-well plates were seeded with 5 × 10^5 CFU/mL in a volume of 100 μL of tryptic soy broth (TSB) per well for Staphylococcus aureus assays. Compounds were dissolved in DMSO and serially diluted as 1:2 dilutions to give the final concentration ranging from 0.25 to 128 μg/mL per well. […] Plates were incubated at 37 °C for 18–20 hours and MIC was determined by reading OD625. For M.avium and M.abscessus, 7H9 broth media was used for determination of MICs. The final concentration was 5 × 10^5 CFU/mL in each well. The plate was incubated at 37 °C for 7–8 days and MICs were determined using a Tecan microplate reader (OD625) and resazurin reduction assay.

Gram-positive bacteria = test: MIC against Gram-positive bacteria (summary); type: cell-based; conditions: range over all tested Gram-positive bacteria
Protocol: as §1

MRSA USA100 = test: MIC against MRSA USA100; type: cell-based, Staphylococcus aureus; conditions: TSB, 37 °C, 18–20 hours
Protocol: as §1

MRSA (USA200) = test: Colony morphology / small colony variant formation on TSA; type: cell-based, Staphylococcus aureus
Protocol: MRSA was streaked and then incubated on tryptic soy agar (TSA) containing 0, 2, 4, 8 or 16 μg/mL of inhibitor 3a or 4 μg/mL of 7C or 0.025 μg/mL of rifampin at 37 °C for 96 h. MK-4 (100 μg/mL) was supplemented in TSA containing 8 μg/mL of 3a for the rescue experiment.

MRSA USA 700 = test: Menaquinone (MK-4) rescue, resazurin reduction assay, USA 700; type: cell-based; conditions: Staphylococcus aureus, read-out: MIC in the presence of MK-4
Protocol: Resazurin reduction assay was performed in 96-well plate. MRSA was cultured in TSB until OD625 reached 0.4~0.5 and diluted and plated in 96-well plate. […] The plate was incubated overnight at 37 °C followed by 20 μL of resazurin (0.15 mg/mL) was added to each well. The plate was incubated for 2–4 h and fluorescence was measured at 560 nm excitation/590 nm emission.

[1] = tested on: Methicillin susceptible Staphylococcus aureus; test: MIC against MSSA; type: cell-based; conditions: for MIC: MSSA
Protocol: as §1

MRSA (USA700) biofilms = test: S. aureus biofilm assay; type: cell-based, Staphylococcus aureus; conditions: USA700 biofilm, 24 h
Protocol: Biofilm assays were performed using a method previously described with modification. A 96 well plate was precoated with 20% human plasma (Sigma) in 0.05 M carbonate buffer, pH 9.6 at 4 °C for 24 h. MRSA was cultured overnight in TSB containing 3% NaCl and 0.5% glucose. The overnight culture was diluted with TSB/NaCl/Glucose media until OD600 reached 0.05. After carefully removing the liquid from the 96 well plate, 200 μL of MRSA dilution was added to each well in triplicate. The plate was incubated at 37 °C for 24 h and carefully washed with PBS twice. MH broth (200 μL) containing a compound was added to each well in triplicate and incubated at 37 °C for 24 h. After washing with PBS twice, the biofilm was scraped in 100 μL of PBS and serially diluted and plated on TSA to determine CFU.

TNF-α = TNF-α release from THP-1 macrophages; type: cell-based, human; conditions: concentration equal to MIC, 24 h, 37 °C
Protocol: (§2) THP-1 cells were differentiated into macrophages by treatment with PMA (7.5 ng/mL). Levels of the human cytokines (GM-CSF, IFN-γ, IL-1β, IL-2, IL-4, IL-5, IL-6, IL-8, IL-10, TNF-α) released from THP-1 macrophages were determined using a multiplex kit from Life Technologies according to the manufacturer’s instructions. In brief, the 96 well filter plate was pre-wetted, and then 25 μL of the diluted bead suspension was added to each well and washed twice. 100 μL of samples and standards were added to each well. The plate was incubated at room temperature for 2 h on a shaker. Following washing, biotinylated detection antibody was added and incubated for 1 h. After washing, streptavidin-RPE was added to each well and incubated for 0.5 h. The plate was again washed, resuspended in 100 μL of the washing buffer, and read on the Luminex xMAP™ system (Bio-Rad, AtheNA multi-Lyte™, USA). All samples were run in triplicate and standards were run in duplicate.

MRSA USA500 = test: MIC against MRSA USA500; type: cell-based, Staphylococcus aureus; conditions: TSB, 37 °C, 18–20 hours
Protocol: as §1

MRSA USA800 = test: MIC against MRSA USA800; type: cell-based, Staphylococcus aureus; conditions: TSB, 37 °C, 18–20 hours
Protocol: as §1

MRSA (USA 700) = test: Activity against extracellular MRSA in the presence of human MDMs; type: cell-based, Staphylococcus aureus; conditions: extracellular MRSA USA700, MIC and MIC/4, 24 h
Protocol: Human monocyte-derived macrophages (MDM) were cultured at a concentration of 1 × 10^6 cells/mL/well in a 24 well plate. MRSA (USA 700) was cultured in TSB (10 mL) until OD625 reached 0.4~0.5 and then centrifuged at 14,000 rpm for 10 min. The pellets were resuspended in 10 mL of DMEM supplemented with 10% human serum (no antibiotics). The bacteria medium was diluted with DMEM containing an inhibitor to obtain 1 × 10^6 CFU/mL and added to human MDMs (MOI = 1) in a 24-well plate. After 24 hour infection at 37 °C, the supernatants were serially diluted for CFU determination (TSA plates).

IL-6 = IL-6 release from THP-1 macrophages; type: cell-based, human; conditions: concentration equal to MIC, 24 h, 37 °C
Protocol: as §2

MRSA USA700 = test: MIC against MRSA USA700; type: cell-based, Staphylococcus aureus; conditions: TSB, 37 °C, 18–20 hours; for MIC: Staphylococcus aureus, read-out: MIC, Staphylococcus aureus isolate USA700
Protocol: as §1

IL-1β = IL-1β release from THP-1 macrophages; type: cell-based, human; conditions: concentration equal to MIC, 24 h, 37 °C
Protocol: as §2

Mycobacterium avium = test: MIC against Mycobacterium avium; type: cell-based; conditions: 7H9 broth, 7–8 days
Protocol: as §1

Pseudomonas aeruginosa = test: MIC against Pseudomonas aeruginosa; type: cell-based; conditions: for MIC: read-out: MIC, PA
Enterococcus faecalis = test: MIC against Enterococcus faecalis; type: cell-based; conditions: for MIC: read-out: MIC, EF
MRSA USA400 = test: MIC against MRSA USA400; type: cell-based, Staphylococcus aureus; conditions: TSB, 37 °C, 18–20 hours; for MIC: Staphylococcus aureus, read-out: MIC, Staphylococcus aureus isolate USA400
Protocol: as §1

Mycobacterium abscessus = test: MIC against Mycobacterium abscessus; type: cell-based; conditions: Mycobacteroides abscessus, 7H9 broth, 7–8 days
Protocol: as §1

MRSA USA200 = test: MIC against MRSA USA200; type: cell-based, Staphylococcus aureus; conditions: TSB, 37 °C, 18–20 hours
Protocol: as §1

MRSA USA300 = test: MIC against MRSA USA300; type: cell-based, Staphylococcus aureus; conditions: TSB, 37 °C, 18–20 hours; for MIC: Staphylococcus aureus, read-out: MIC, Staphylococcus aureus isolate USA300
Protocol: as §1

MenA = conditions: previously reported; cited from earlier work

COc1ccc2ccc(OCCCCCCCCNCCc3ccc(F)cc3)cc2c1 [3a]
MICs against MRSA strains (range) (MRSA strains): 1 to 8 µg/mL | MIC values against all Gram-positive bacteria (range) (Gram-positive bacteria): 0.5 to 16 µg/mL | MIC (MRSA USA100; Staphylococcus aureus, read-out: MIC, Staphylococcus aureus isolate USA100): 4 µg/mL (≈ 9.44 µM) | colonies on MK-4 supplemented agar plate (MRSA (USA200); USA200, 8 μg/mL inhibitor + MK-4 100 μg/mL): showed wild-type colonies | colonies on agar plates (MRSA (USA200); USA200, more than 2× MIC, after 24 h): No colonies were observed | induction of small colony variants (SCV) (MRSA (USA200); USA200 on TSA, 37 °C, up to 96 h (3a 4–16 μg/mL), 72 h (7c, rifampin)): did not induce SCV | MIC (MRSA USA 700; USA 700, 0.05 mg/mL MK-4): 16 µg/mL | MIC (MRSA USA 700; USA 700, 0.5 mg/mL MK-4): 64 µg/mL | MIC [1]: 4 µg/mL (≈ 9.44 µM) | fold decrease in MRSA growth from the treated biofilm (MRSA (USA700) biofilms; 0.03 mg/mL): 10^4 fold | fold decrease in MRSA growth from the treated biofilm (MRSA (USA700) biofilms; 0.5 mg/mL): 10^6 fold | fold decrease in MRSA growth from the treated biofilm (MRSA (USA700) biofilms; 1 mg/mL): 10^7 fold | TNF-α released from THP-1 macrophages (TNF-α): decreased | MIC (MRSA USA500; Staphylococcus aureus, read-out: MIC, Staphylococcus aureus isolate USA500): 4 µg/mL (≈ 9.44 µM) | MIC (MRSA USA800; Staphylococcus aureus, read-out: MIC, Staphylococcus aureus isolate USA800): 6 µg/mL (≈ 14.2 µM) | increase of antibacterial activity compared to activities with MDMs (MRSA (USA 700)): 1.5 – 3 fold | increase of antibacterial activity compared to activities without MDMs (MRSA (USA 700)): 6–12 fold | IL-6 released from THP-1 macrophages (IL-6): decreased; also recorded: significantly reduced | MIC (MRSA USA700): 4 µg/mL (≈ 9.44 µM) | MIC, Staphylococcus aureus isolate USA700 (MRSA USA700): 4 µg/mL (≈ 9.44 µM) | IL-1β released from THP-1 macrophages (IL-1β): stimulated the release | MIC (Mycobacterium avium): 2 µg/mL (≈ 4.72 µM) | MIC (Pseudomonas aeruginosa): > 64 µg/mL | MIC (Enterococcus faecalis): 1 µg/mL (≈ 2.36 µM) | MIC (MRSA USA400): 4 µg/mL (≈ 9.44 µM) | MIC (Mycobacterium abscessus): 6 µg/mL (≈ 14.2 µM) | MIC (MRSA USA200; Staphylococcus aureus, read-out: MIC, Staphylococcus aureus isolate USA200): 2 µg/mL (≈ 4.72 µM) | MIC (MRSA USA300): 4 µg/mL (≈ 9.44 µM)

Brc1cc2ccc(OCCCCCCCCN3CCCCC3)cc2cc1OCc1ccccc1 [6b]
MIC, Staphylococcus aureus isolate USA100 (MRSA USA100): 6 µg/mL (≈ 11.4 µM) | MIC, MSSA [1]: 4 µg/mL (≈ 7.63 µM) | TNF-α released from THP-1 macrophages (TNF-α): decreased | MIC, Staphylococcus aureus isolate USA500 (MRSA USA500): 12 µg/mL (≈ 22.9 µM) | MIC, Staphylococcus aureus isolate USA800 (MRSA USA800): 12 µg/mL (≈ 22.9 µM) | increase of antibacterial activity compared to activities with MDMs (MRSA (USA 700)): 1.5 – 3 fold | increase of antibacterial activity compared to activities without MDMs (MRSA (USA 700)): 6–12 fold | IL-6 released from THP-1 macrophages (IL-6): decreased; also recorded: significantly reduced | MIC, Staphylococcus aureus isolate USA700 (MRSA USA700): 16 µg/mL (≈ 30.5 µM) | IL-1β released from THP-1 macrophages (IL-1β): stimulated the release | MIC, MA (Mycobacterium avium): 2 µg/mL (≈ 3.81 µM) | MIC, PA (Pseudomonas aeruginosa): >128 µg/mL | MIC, EF (Enterococcus faecalis): 2 µg/mL (≈ 3.81 µM) | MIC, Staphylococcus aureus isolate USA400 (MRSA USA400): 6 µg/mL (≈ 11.4 µM) | MIC, Staphylococcus aureus isolate USA200 (MRSA USA200): 4 µg/mL (≈ 7.63 µM) | MIC, Staphylococcus aureus isolate USA300 (MRSA USA300): 6 µg/mL (≈ 11.4 µM)

C=CCN(C)CCCCCCCCOc1ccc2ccc(OC)cc2c1 [compound 1]
MIC [1]: 32 µg/mL (≈ 90 µM) | M.tb IC50 (inhibition of both M.tb and MenA enzyme activity) (MenA): 6 µg/mL | MIC (MRSA USA700): 16 µg/mL (≈ 45 µM) | MIC (Pseudomonas aeruginosa): 128 µg/mL (≈ 360 µM) | MIC (Enterococcus faecalis): 8 µg/mL (≈ 22.5 µM) | MIC (MRSA USA400): 16 µg/mL (≈ 45 µM) | MIC (MRSA USA300): 16 µg/mL (≈ 45 µM)
